Assay results as given in ChEMBL document CHEMBL1124338, “Amine peroxides as potential antimalarials” (J Med Chem, 1989).

Assays:
[1] = test system: Plasmodium falciparum; test: In vitro antimalarial activity against Plasmodium falciparum W-2; format: functional, organism-based
[2] = test system: Mus musculus; test: Compound was evaluated for (T-C) survival time of the treated mice (Mus musculus) against Plasmodium berghei at 160 mg/kg; format: functional
[3] = test system: Mus musculus; test: Compound was evaluated for (T-C) survival time of the treated mice (Mus musculus) against Plasmodium berghei at 640 mg/kg; format: functional
[4] = test system: Mus musculus; test: Compound was evaluated for (T-C) survival time of the treated mice (Mus musculus) against Plasmodium berghei at 40 mg/Kg; format: functional
[5] = test system: Plasmodium falciparum; test: In vitro antimalarial activity against Plasmodium falciparum D6; format: functional, organism-based

Row | SMILES | IC50 [1] [µM] | T-C [2] [days] | T-C [3] [days] | T-C [4] [days] | IC50 [5] [µM]
1 | CC(C)(C)OOCN1CCN(c2ccccc2)CC1 | 39.8 | 0.7 | 0.7 | 0.9 | 25.7
2 | CC1CCN(COOC(C)(C)C)CC1 | 25.2 | 0.1 | 0.7 | 0.3 | 19.7
3 | CC(C)(C)OOCN1CCC(c2ccccc2)CC1 | 26.9 | 0.5 | 0.8 | 0.3 | 27.3
4 | CN(COOC(C)(C)C)C1CCCCC1 | 26.6 | 1.3 | 0.7 | 0.5 | 25.1
5 | CCN(COOC(C)(C)C)c1ccccc1 | 39.4 | 0.3 | 1.3 | 0.5 | 54
6 | CC(C)(C)OO [TERT-BUTYL HYDROPEROXIDE] | 240 | 0.3 | 0.7 | 0.1 | 203
